# Experimental data as given in publication PMC3210175, “8-Modified-2′-Deoxyadenosine Analogues Induce Delayed Polymerization Arrest during HIV-1 Reverse Transcription” (PLoS ONE, 2011).
# “Also recorded” adds a separate entry of the source. Read-outs that look alike come from different tables or passages of the source.
# Tests used:
# [1] = target: T1, HIV-1 RT (Human immunodeficiency virus type 1 group M subtype B, UniProt P04585, E1065Q); assay: (+) strand DNA synthesis assay (DCT in 31-mer DNA template, 18-mer DNA primer); format: biochemical; details: analogue in 31-mer DNA template; RT 10 or 30 nM
# T1 construct: helix αH in the thumb domain of the p66 subunit of HIV-1 RT; made in house
# From the text: (§1) Viral RNA, comprising the first 311 nucleotides of the HIV-1 genomic RNA (Mal isolate) was in vitro transcribed and purified as previously described. 18-, 19 and 31-mer DNA oligodeoxynucleotides containing the modified 2′-dA analogues respectively at 3′ end, at the penultimate position of 3′ end and at a distance of 12 nucleotides from their 5′ end were chemically synthesized and purified as described above (Figure 5). Unmodified and modified 18- and 19-mer primers were labelled at their 5′ end with [γ-^32]ATP using phage T4 polynucleotide kinase and purified on 8% denaturing polyacrylamide gels. RNase H (−) reverse transcriptase bearing the E478Q mutation that abolishes RNase H activity (RT^EQ) was expressed and purified according to a method adapted from.
# (§2) Primer/template (P/T) complexes, at a final concentration of 300 nM, were formed by incubating the primer with a 3 fold excess of either 1–311 viral RNA or modified 31-mer DNA oligonucleotide in water for 2 min at 90°C, cooling on ice for 2 min and incubating for 20 min at 50°C in 100 mM NaCl.
# Thirty one-mer DNA templates, containing or not a modified 2′-deoxyadenosine were hybridized to an 18-mer DNA primer (Figure 5) and subsequent DNA synthesis and analysis of the reaction products were performed as described above.
# [2] = test system: HIV-1 LAI in CEM-SS cells; assay: HIV-1 inhibition in cell culture (RT activity in cell culture supernatants); format: cell-based; details: mean ± SD, four independent experiments
# Protocol: (§3) We thus addressed the antiviral activity of our nucleoside analogues in cell culture. All the synthesized nucleoside analogues (2a–g, 3, 7, 8 and 9) were tested for their ability to reduce HIV-1 LAI in CEM-SS cells. Viral replication was monitored by measuring the RT activity in the cell culture supernatants, while compound's cytotoxicity on uninfected cells was assessed using an MTT assay.
# (§4) The activity of the nucleoside analogues 2a–g, 3, 7, 8 and 9 on HIV-1 replication was determined by measuring the RT activity associated with virus particles released from CEM-SS cells infected with HIV-1 Lai. The 50% cytotoxic concentration (CC50) was evaluated in parallel to the 50% inhibitory concentration (IC50)[37].
# [3] = Cytotoxicity on uninfected cells, MTT assay; format: cell-based; details: human, uninfected CEM-SS cells, mean ± SD, four independent experiments
# Protocol: as §3, §4
# [4] = target: T1, HIV-1 RT; assay: (−) strand "n+6" DNA synthesis assay (ddATP instead of dATP; DCT-modified 18- or 19-mer primer on 1–311 HIV-1 MAL RNA template); format: biochemical; details: for Inhibition of (−) strand DNA synthesis (DCT in the primer), DCT at 3′-end 18 mer: "n+6" DNA synthesis assay, analogue incorporated at 3′ end of 18-mer DNA primer; for Delayed chain termination (accumulation of n+3 products): DCT at penultimate position of 19-mer primer, both 10 and 30 nM RT
# From the text: as §1, §2
# Ten nM P/T (with the 311 vRNA as template) were pre-incubated with 10 or 30 nM of RT at 37°C for 4 min. Reactions were initiated by the addition of 50 µM of each of the four dNTPs and stopped at various times with equal amounts of buffer containing formamide. The same procedure was used for synthesis of “+6” DNA except that ddATP was substituted for dATP. Reaction products were denatured for 2 min at 90°C prior to separation on an 8% polyacrylamide denaturing gel and quantified using a Fuji FLA-5100 analyser and the Image Gauge program.
# [5] = target: T1, HIV-1 RT; assay: (−) strand strong-stop DNA synthesis assay (DCT-modified 19-mer DNA primer on 1–311 HIV-1 MAL RNA template); format: biochemical; details: 10 nM RT, full-length product
# From the text: as §1, §2
# Ten nM P/T (with the 311 vRNA as template) were pre-incubated with 10 or 30 nM of RT at 37°C for 4 min. […] Reaction products were denatured for 2 min at 90°C prior to separation on an 8% polyacrylamide denaturing gel and quantified using a Fuji FLA-5100 analyser and the Image Gauge program.
# [6] = test system: CEM-SS cells; assay: Cytotoxicity on uninfected cells, MTT assay; format: cell-based; details: mean ± SD, four independent experiments
# Protocol: as §3, §4
# [7] = target: T1, HIV-1 RT; assay: DNA-directed DNA synthesis with modified 19-mer primer on 41-mer DNA template (Figure S2); format: biochemical; details: 8-MeS-dAMP at penultimate position of 19-mer primer, 10 or 90 nM RT
# From the text: Supplementary file pone.0027456.s002.docx: Figure S2 Comparative effect of 8-MeS-dA on (−) and (+) strand DNA synthesis. A. Templates and primers used for the study. The template is either 1–311 HIV-1 MAL RNA, for which part of the sequence is shown, or a 41-mer DNA oligonucleotide. The primer is a 19- mer DNA strictly complementary to the central part of the template. X corresponds to either dAMP or 8-MeS-dAMP inserted at the penultimate position of the primer. “n” corresponds to the position of the modified nucleotide. B. Time course of in vitro DNA synthesis using 10 nM of primer/template complexes preincubated with either 10 or 90 nM of HIV-1 RT. Polymerization was initiated by the addition of 20 µM of dTTP, dGTP and dCTP as well as 50 µM of ddATP for the RNA-directed synthesis or 20 µM of dATP, dTTP, dCTP and 50 µM of ddGTP for the DNA directed synthesis. Reactions were stopped after 15, 60 and 120 min. (+6) and (+7) refer to the 6th and 7th nucleotides to be added with respect to the position of the modified nucleotide analogue. (DOCX) Click here for additional data file.
# [8] = Human immunodeficiency virus 1, CEM-SS, read-out: EC50
SMILES,Effect on primer extension pattern / enzyme pausing in (+) strand DNA synthesis [1],"EC50 [2, 8]",CC50 [3],Delayed chain termination (accumulation of n+3 products) [4],also measured
"C=Cc1nc2c(N)ncnc2n1[C@H]1C[C@H](O)[C@@H](CO)O1 [compound 8, 8-Vinyl-2′-deoxyadenosine]",enzyme pausing is obvious at positions n+1 and mainly n+2,> 100 µM,> 100 µM,,
"CCN(CC)c1nc2c(N)ncnc2n1[C@H]1C[C@H](O)[C@@H](CO)O1 [2c, 8-Diethylamino-2'-deoxyadenosine]",,> 100 µM,> 100 µM,,
"CCN(C)c1nc2c(N)ncnc2n1[C@H]1C[C@H](O)[C@@H](CO)O1 [2b, 8-Ethylmethylamino-2'-deoxyadenosine]",enzyme pausing is obvious at positions n+1 and mainly n+2,> 100 µM,> 100 µM,clearly induced a delayed chain termination,"Inhibition of (−) strand DNA synthesis (DCT in the primer), DCT at 3′-end 18 mer ([4]; 10 nM RT): immediate chain terminator; also recorded: termination; Inhibition of (−) strand DNA synthesis (DCT in the primer), DCT at 3′-end 18 mer ([4]; 30 nM RT): immediate chain terminator; also recorded: termination"
"NC(=O)c1nc2c(N)ncnc2n1[C@H]1C[C@H](O)[C@@H](CO)O1 [compound 7, 8-Carbamoyl-2′-deoxyadenosine]",,> 100 µM,> 100 µM,,
"CCc1nc2c(N)ncnc2n1[C@H]1C[C@H](O)[C@@H](CO)O1 [compound 9, 8-Ethyl-2′-deoxyadenosine]",enzyme pausing is obvious at positions n+1 and mainly n+2,> 100 µM,> 100 µM,,
"CC(C)CNc1nc2c(N)ncnc2n1[C@H]1C[C@H](O)[C@@H](CO)O1 [2g, 8-iButyl-amino-2'-deoxyadenosine]",does not affect this pattern,> 100 µM,> 100 µM,did not impact,"Inhibition of (−) strand DNA synthesis (DCT in the primer), DCT at penultimate position 19 mer [5]: same pattern as the unmodified primer"
"CC(C)Nc1nc2c(N)ncnc2n1[C@H]1C[C@H](O)[C@@H](CO)O1 [2f, 8-iPropyl-amino-2'-deoxyadenosine]",enzyme pausing is obvious at positions n+1 and mainly n+2,14 µM,81 µM,clearly induced a delayed chain termination,EC50 ([2]; listed as 8-iPr-N-dA): moderate anti-HIV-1 activity; EC50 ([2]; read-out: EC50): 14.2 ± 1.9 µM; CC50 [6]: 81.3 ± 6.1 µM
"Nc1ncnc2c1nc(N1CCCC1)n2[C@H]1C[C@H](O)[C@@H](CO)O1 [2d, 8-Pyrrolidin-2'-deoxyadenosine]",,> 100 µM,> 100 µM,,
"Nc1ncnc2c1nc(N1CCCCC1)n2[C@H]1C[C@H](O)[C@@H](CO)O1 [2e, 8-Piperidin-2'-deoxyadenosine]",,> 100 µM,> 100 µM,,
"CN(C)c1nc2c(N)ncnc2n1[C@H]1C[C@H](O)[C@@H](CO)O1 [2a, 8-Dimethylamino-2'-deoxyadenosine]",,> 100 µM,> 100 µM,,
"CSc1nc2c(N)ncnc2n1[C@H]1C[C@H](O)[C@@H](CO)O1 [compound 3, 8-Methylthio-2′-deoxyadenosine]",enzyme pausing is obvious at positions n+1 and mainly n+2,> 100 µM,> 100 µM,clearly induced a delayed chain termination,Delayed chain termination with DNA rather than RNA as template [7]: did not act as a delayed chain terminator
